Assay results reported in publication PMC6943423, “Structure-Activity Study of an All-D Antimicrobial Octapeptide D2D” (Molecules, 2019).
Square brackets hold non-standard residues; d marks the D form. Peptide text beside a SMILES is read from it. d1Nal = N[C@H](Cc1cccc2ccccc12)C(=O)O; dNle = CCCC[C@@H](N)C(=O)O

Key:
[1] = Lipid-peptide interaction by synchrotron SAXS; settings: SAXS fit parameter, fit error < 5%
Description: For preparation of unilamellar lipid vesicles, synthetic DMPC (1,2-dimyristoyl-sn-glycero-3-phosphocholine), DMPG (1,2-dimyristoyl-sn-glycero-3-phospho-(10-rac-glycerol)), and DMPE-PEG (1,2-dimyristoyl-sn-glycero-3-phosphoethanolamine-N-[methoxy(polyethylene glycol)-2000]) (from Avanti Polar Lipids) were used in the molar ratio 9:7.5:2.5. The lipids were first dissolved in a 1:3 methanol:chloroform solution, and then the organic solvents were removed completely under vacuum using a Heidolph rotary evaporator with a Vacuubrand vacuum pump. The resulting lipid film was hydrated with 50 mM Tris buffer, pH 7.4, for at least one hour at 35 °C. After sonication for 10 min, the lipid dispersions were extruded through a 100 nm pore diameter polycarbonate filter (21 times) using an Avanti mini-extruder fitted with two 1 mL airtight syringes. Immediately before the SAXS experiment, a peptide solution with the adequate concentration for the target lipid:peptide ratio was mixed 1:1 with the lipid solution (1:1) using a micropipette.
SAXS experiments of the peptide-lipid mixes were performed at the automated BM29 bioSAXS beamline at the European Synchrotron Radiation Facility (ESRF) in Grenoble, France. The data was obtained using an energy of 12.5 keV and a detector distance of 2.87 m, covering a q range of about 0.0047 Å^−1 to 0.5 Å^−1. The data set was calibrated to an absolute intensity scale using water as a primary standard. 40 µL samples were run through a capillary using the flow mode of the automated sample changer. SAXS data was collected in ten successive frames of 0.5 s each to monitor radiation damage and the data reduction was done using the standard tool at BM29 [37].
The SAXS results of the lipid-peptide mixes were analysed using the theoretical model described in detail in [29]. In short, the model provides a detailed description of the membrane by dividing into probability functions for each component (lipid sub-units/peptide) across the bilayer.

[2] = Peptide self-assembly nanostructure in solution by SAXS; type: physicochemical; settings: for nanostructure in solution (self-assembly, SAXS model): lab SAXS, 50 mM Tris buffer pH 7.4, 2.5–10 mg/mL, ambient temperature; as to outer radius of hollow nano-tubes: values in Å; as to shell thickness of hollow nano-tubes: values in Å
Description: SAXS experiments of D2D and the alanine-scan (compounds 1–8) were performed using a Bruker NANOSTAR equipped with a microfocus X-ray source (IμS Cu, InCoatec, Germany) and a VÅNTEC-2000 detector. Raw scattering data was calibrated to absolute intensity scale using water as a primary standard and radially averaged in order to obtain the 1D scattered intensity profile as a function of the scattering vector q (q = 4 π sin (θ/2)/λ), where θ is the scattering angle and λ is the X-ray wavelength of 1.54 Å. The samples were dissolved in 50 mM Tris buffer, pH 7.4 (10 mg/mL, 5 mg/mL and 2.5 mg/mL) and injected manually into a temperature-controlled quartz cell located in a vacuum chamber and measured for 180 min.
The scattering of the peptide D2D was analysed using a random polymer-like chain model:(1) Ichain(q)=ϕ·Vp·Δρ^2·Pchain(q) where ϕ is the volume fraction of the peptide, Vp is the volume of the polymer, Δρ is the excess scattering length density and Pchain(q) is the form factor of the free peptide chains given by the Debye expression for Gaussian chains:(2) gPchain(q)=2·exp[−(qRg)^2]−1+(qRg)^2/(qRg)^4 where Rg is the radius gyration of the peptide chains.
The scattering for compounds 2 and 7 was analysed using a rectangular sheet like model:(3) Isheet(q)=ϕ·Vp·Δρ^2·Np·Psheet(q)
Under the assumption that the length of the peptide sheets are much greater than the lateral dimension, i.e., c >> a, b, the form factor Psheet(q) is given by (4) Psheet(q)=Fc(q)1/2π∫02πAsheet(q, α)^2dα where the amplitude is given by (5) Asheet(q,α)=sin(qb cos(α)/2)/qb cos(α)/2· sin(qa sin(α)/2) /qa sin(α)/2) and (6) Fc(q)=(2 Si(qc)/(qc)−4 sin^2(qc/2)/(qc)^2 where Si(x)=∫0xt^−1sint dt .
The expression for the absolute scattering intensity, from this structure can be written as:(7) Inanotube(q)=ϕ·P·Vtot·Δρ^2·P(q)L·A(q)cs2·DW(q) where ϕ is the volume fraction of the peptide, P is the aggregation number given by P π(Ro2−Ri2)L/Vp where Vp is the volume of a peptide chain, Ro is the outer radius and Ri is the inner radius of the tubes, and L is the length. A(q)cs2 is given by:(8) A(q)cs2=Ro2A(q,Rc)−Rin2A(q,Ri)/(Ro2−Ri2) where A(q,x)=2J1(q·x)/(q·x) and J1(x) is the first order Bessel function.
The longitudinal form factor P(q)L is given by:(9) P(q)L=2 Si(QL)/QL −4 sin(sin^2(QL/2)/(QL)^2 where L is the length of the nanotubes and Si(x) is the Sine-function.
In addition, we introduced a slight distribution in the inner radius for possible shape fluctuations, and a Debye Waller factor, DW(q) = exp(−q^2 σ^2), describing possible surface roughness of the inner and outer wall.

A. baumannii 19606 = assay: Time-kill kinetics, A. baumannii; type: cell-based, Acinetobacter baumannii; settings: 5 × MIC, exponentially growing cells 1 × 10^8, A. baumannii 19606
Description: (§1) The time kill experiments were performed by treating exponentially growing cultures with D2D and compound 5. Overnight cultures grown in MHB-II media, were diluted 1:10.000 to ensure exponentially growing cultures (8–10 generations), before cultures reached 1 × 10^8 CFU approximately OD600 = 0.1. When cultures reached 1 × 10^8 they were split into blood glass tubes containing 3 mL each and then treated with the respective drugs at the concentrations as shown in Figure 3. Sampling was performed at 0, 1, 3, 5 and 24 h, by removing 250 µL culture. Samples were spun down at 4000 G for 5 min and supernatant removed, cells were washed in 1 mL 0.9% NaCl, spun down again, before being suspended in 250 µL 0.9% NaCl. Finally, 10 fold dilution series were prepared in 0.9% NaCl. From these 10 µL were spotted (in triplicate) onto LB agar. CFU were counted after 24 h incubation at 37 °C. Experiments were performed in triplicate from individual colonies. Data analysis was performed using GraphPad prism 5 and plotted as the mean of triplicated with standard deviation.

E. coli 25922 = assay: Time-kill kinetics, E. coli; type: cell-based, Escherichia coli; settings: 5 × MIC, exponentially growing cells 1 × 10^8, E. coli 25922
Description: as §1

S. aureus 29213 = assay: Time-kill kinetics, S. aureus; type: cell-based, Staphylococcus aureus; settings: for reduction in viable cells: 5 × MIC, exponentially growing cells 1 × 10^8, S. aureus 29213
Description: as §1

human red blood cells = assay: Hemolytic activity; type: cell-based
Description: The percentage of hemolysis at 150 μM was determined for all compounds as previously described. Briefly, two-fold serial dilutions (2.35 to 150 μM) of compounds in PBS were mixed with a 0.5% v/v suspension of fresh human red blood cells (RBC) in the same buffer. After 1 h incubation at 37 °C, plates were centrifuged and aliquots of the supernatants were transferred to clear ELISA plates. Absorbance at 414 nm was determined and normalised with respect to a negative (PBS, 0%) and positive (melittin, 100%) control.

S. aureus (ATCC 29213) = type: cell-based, Staphylococcus aureus; settings: broth microdilution, MHB-II, ~5 × 10^5 CFU, 18–20 h at 37 °C, triplicate
Description: (§2) E. coli (ATCC 25922), S. aureus (ATCC 29213), P. aeruginosa (ATCC 27853) and A. baumannii (ATCC 19606).
(§3) Antimicrobial susceptibility testing was performed by broth dilution in MHB-II media using a protocol adapted from, with minor modifications. Briefly, the compounds were prepared in standard stocks of 1 mg/mL in milli-Q H2O. Antimicrobial dilutions were prepared in two times the final concentration (128 µg/mL) of the compounds. Bacterial suspensions were prepared from overnight cultures (MHB-II) by diluting to OD600 = 0.001 (Approximately 1 × 10^6 CFU). An amount of 100 µL MHB-II was transferred to all wells in column 1–9, excluding the antibiotics well (A1–A9). An amount of 200 µL of MHB-II was transferred to all wells in column 10–12. An amount of 200 µL peptide stock was transferred to each well from A1–9. A 2-fold serial dilution from row A–G was obtained by transferring 100 µL from row A to B, and continued until row G. Resulting in final concentration range of peptides: 128, 64, 32, 16, 8, 4, and 2 (µg/mL). Finally, 100 µL bacterial suspension (1 × 10^6 CFU) were added to all wells giving a final bacterial inoculum of approximately 5 × 10^5 colony forming units (CFU). The plates were incubated for 18–20 h at 37 °C.

[3] = test system: A. baumannii (ATCC 19606); type: cell-based, Acinetobacter baumannii; settings: broth microdilution, MHB-II, ~5 × 10^5 CFU, 18–20 h at 37 °C, triplicate
Description: as §2, §3

[4] = test system: P. aeruginosa (ATCC 27853); type: cell-based, Pseudomonas aeruginosa; settings: broth microdilution, MHB-II, ~5 × 10^5 CFU, 18–20 h at 37 °C, triplicate
Description: as §2, §3

E. coli (ATCC 25922) = type: cell-based, Escherichia coli; settings: broth microdilution, MHB-II, ~5 × 10^5 CFU, 18–20 h at 37 °C, triplicate
Description: as §2, §3

P. aeruginosa 27853 = assay: Time-kill kinetics, P. aeruginosa; type: cell-based, Pseudomonas aeruginosa; settings: 5 × MIC, exponentially growing cells 1 × 10^8, P. aeruginosa 27853
Description: as §1

[5] = cited from earlier work
Description: (§4) In the present study, we investigated all-D-peptides. […] For example, Mana ...

S. aureus = settings: cited from earlier work
Description: as §4

[6] = fraction peptide 1:10 (peptide 5: joint SAXS/SANS fit)
[7] = SAXS nanotube model fit, 50 mM Tris pH 7.4, 2.5–10 mg/mL

| Compound | ffree peptide ([1]; fraction peptide 1:5) | ffree peptide [1, 6] | ffree peptide ([1]; fraction peptide 1:20) | outer radius of hollow nano-tubes [2, 7] [Å] | shell thickness of hollow nano-tubes [2, 7] [Å] | nanostructure in solution (self-assembly, SAXS model) [2] | reduction in number of viable cells (A. baumannii 19606) | reduction in number of viable cells (E. coli 25922) | reduction in viable cells (S. aureus 29213) [log] | reduction in CFU/mL (S. aureus 29213; S. aureus, concentration not stated (conclusions)) [log] | %H (% Hemolysis at 150 µM) (human red blood cells; red cells of human, 1 h, 150) [%] | Minimum Inhibitory Concentration S.A. (S. aureus (ATCC 29213)) [µg/mL] | Minimum Inhibitory Concentration A.B. [3] [µg/mL] | Minimum Inhibitory Concentration P.A. [4] [µg/mL] | Minimum Inhibitory Concentration E.C. (E. coli (ATCC 25922)) [µg/mL] | %H (% Hemolysis at 150 µM) (human red blood cells; 150 µM in PBS, 0.5% v/v fresh human RBC, 1 h at 37 °C, absorbance 414 nm, normalised to PBS (0%) and melittin (100%)) [%] | killing of viable cells (P. aeruginosa 27853) [log] | activity relative to its L-enantiomer (more active) [5] | antimicrobial activity against S. aureus (S. aureus) [µg/mL] |
| --- | --- | --- | --- | --- | --- | --- | --- | --- | --- | --- | --- | --- | --- | --- | --- | --- | --- | --- | --- |
| CCCC[C@@H](NC(=O)[C@@H](CCCCN)NC(=O)[C@@H](Cc1cccc2ccccc12)NC(=O)[C@@H](C)NC(=O)[C@@H](Cc1ccccc1)NC(=O)[C@@H](Cc1cccc2ccccc12)NC(=O)[C@@H](CCCCN)NC(=O)[C@H](N)CCCCN)C(N)=O [Compound 5, kk(1-nal)fa(1-nal)k(nle)-NH2] (H-[dK][dK][d1Nal][dF][dA][d1Nal][dK][dNle]-NH2) | 0.4 | 0.5 | 0.5 | 33 | 4 | hollow nano-tubes | 4–5 logs | 4–5 logs | 5 | > 3 | 47 | – | – | – | – | – | – | – | – |
| CCCC[C@@H](NC(=O)[C@@H](CCCCN)NC(=O)[C@@H](Cc1cccc2ccccc12)NC(=O)[C@@H](CCCCN)NC(=O)[C@H](N)Cc1ccccc1)C(N)=O [Compound 29, fk(1-nal)k(nle)-NH2] (HELM PEPTIDE1{[dF].[dK].[O=C([C@@H](Cc1cccc2ccccc12)N[*:1])[*:2]].[dK].[CCCC[C@@H](N[*:1])C(=O)[*:2]].[am]}$$$$V2.0; N-terminus assumed) | – | – | – | – | – | – | – | – | – | – | – | >128 | >128 | 128 | >128 | 12 | – | – | – |
| CCCC[C@@H](NC(=O)[C@@H](CCCCN)NC(=O)[C@@H](Cc1cccc2ccccc12)NC(=O)[C@@H](CCCCN)NC(=O)[C@@H](Cc1ccccc1)NC(=O)[C@@H](Cc1cccc2ccccc12)NC(=O)[C@@H](CCCCN)NC(=O)[C@H](N)CCCCN)C(N)=O [Compound D2D, kk(1-nal)fk(1-nal)k(nle)-NH2] (H-[dK][dK][d1Nal][dF][dK][d1Nal][dK][dNle]-NH2) | 0.7 | 0.51 | 0.5 | – | – | random unstructured polymer-like chains | 4–5 logs | 4–5 logs | 5 | – | 23 | – | – | – | – | – | 1 | approximately four-fold | – |
| KLKLLLLLKLK-NH2 [sapesin B analog (L-form), literature peptide of Manabe et al] | – | – | – | – | – | – | – | – | – | – | – | – | – | – | – | – | – | – | 16 |
